In patent US10221163B2 (priority 2015, dated 2019):

What was measured:
[1] = tested on: Pseudomonas aeruginosa MB9798 vs MB9799; conditions: fold difference between efflux+ (MB9798) and efflux− (MB9799) strains; imipenem at 2 μg/mL
Outline: (§1)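 Microbroth MIC tests in PAO1-background strains with fixed imipenem and/or ceftazidime, usually at the CLSI breakpoint, plus fixed class A/C β-lactamase inhibitor against AmpC. MBL inhibitor titrated; concentration restoring susceptibility recorded and compared as fold difference between efflux+ MB9798 and efflux− MB9799.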

NDM-1 = NDM-1 (Klebsiella pneumoniae, UniProt C7C422); assay: biochemical; type: biochemical; conditions: fluorescence assay, CCF2-FA substrate, 1 pM enzyme, 2 hours at 25° C.; read-out: NDM-1 IC50
NDM-1, sequence (C7C422 whole entry, looked up, species assumed): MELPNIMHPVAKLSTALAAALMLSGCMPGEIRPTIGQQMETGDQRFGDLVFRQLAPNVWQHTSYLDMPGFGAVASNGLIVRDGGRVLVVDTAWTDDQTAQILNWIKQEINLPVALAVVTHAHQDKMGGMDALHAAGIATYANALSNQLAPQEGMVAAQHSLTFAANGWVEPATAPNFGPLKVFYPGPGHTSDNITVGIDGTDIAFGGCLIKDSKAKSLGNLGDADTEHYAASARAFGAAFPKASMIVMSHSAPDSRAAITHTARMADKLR
Outline: (§2)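 Fluorescence assay of metallo-β-lactamase activity using CCF2-FA, a cephalosporin-linked 7-hydroxycoumarin–fluorescein substrate. Inhibitor, enzyme and substrate were incubated together for 2 hours at 25° C. IC50 came from a 4-parameter fit of inhibition versus inhibitor concentration.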

IMP-1 = IMP-1 (Serratia marcescens, UniProt P52699); assay: biochemical; type: biochemical; conditions: fluorescence assay, CCF2-FA substrate, 2 pM enzyme, 2 hours at 25° C.; read-out: IMP-1 IC50
IMP-1, sequence (P52699 whole entry, looked up, species assumed): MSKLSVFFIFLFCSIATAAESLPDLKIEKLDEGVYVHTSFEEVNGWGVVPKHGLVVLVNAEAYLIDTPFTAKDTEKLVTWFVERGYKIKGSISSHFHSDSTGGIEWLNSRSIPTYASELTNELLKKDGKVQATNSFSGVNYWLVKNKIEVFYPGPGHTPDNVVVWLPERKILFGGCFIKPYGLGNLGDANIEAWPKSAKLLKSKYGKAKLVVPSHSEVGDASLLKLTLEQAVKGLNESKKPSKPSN
Outline: as §2

[2] = tested on: Pseudomonas aeruginosa efflux− (MB9799), IMP-1; type: cell-based; conditions: efflux− MB9799; imipenem at 2 μg/mL; in the presence of a class A, C, D serine β-lactamase inhibitor closely related to relebactam
Outline: as §1

VIM-1 = VIM-1 (Pseudomonas aeruginosa (strain ATCC 15692 / DSM 22644 / CIP 104116 / JCM 14847 / LMG 12228 / 1C / PRS 101 / PAO1), UniProt A0A0F7KYQ8); assay: biochemical; conditions: fluorescence assay, CCF2-FA substrate, 30 pM enzyme, 2 hours at 25° C.; read-out: VIM-1 IC50
Outline: as §2

[3] = tested on: Pseudomonas aeruginosa efflux+ (MB9798), IMP-1; type: cell-based; set-up: Concentration of metallo-β-lactamase inhibitor which restores susceptibility of efflux + (MB9798) strain to imipenem: unit not given here; conditions: efflux+ MB9798; imipenem at 2 μg/mL; in the presence of a class A, C, D serine β-lactamase inhibitor closely related to relebactam
Outline: as §1

[4] = tested on: Escherichia coli expressing NDM-1 (CLB30005, CLB30016); type: cell-based; conditions: NDM-1 strain, with imipenem 1 μg/ml, 95% inhibition of growth
Outline: (§3)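 Clinical strains grown overnight on blood agar at 35°C, colonies suspended in saline, diluted 1:100 into 1.1×CAMHB. Test compound titrated with imipenem at 1 μg/ml; incubated 22–24 h at 35°C, growth read by absorbance.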

[5] = tested on: Serratia marcescens expressing IMP-1 (CL5741); type: cell-based; conditions: IMP-1 strain CL5741, with imipenem 1 μg/ml, 95% inhibition of growth
Outline: as §3

[6] = tested on: Klebsiella pneumoniae expressing VIM-1 (IHMA599644); type: cell-based; conditions: VIM-1 strain IHMA599644, with imipenem 1 μg/ml, 95% inhibition of growth
Outline: as §3

Row | Compound | Efflux ratio [1] | IC50 (NDM-1) [nM] | IC50 (IMP-1) [nM] | Concentration of metallo-β-lactamase inhibitor which restores susceptibility of efflux − (MB9799) strain to imipenem [2] | IC50 (VIM-1) [nM] | Concentration of metallo-β-lactamase inhibitor which restores susceptibility of efflux + (MB9798) strain to imipenem [3] | Escherichia coli MITC95 [4] [µM] | Serratia marcescens MITC95 [5] [µM] | Klebsiella pneumoniae MITC95 [6] [µM]
1 | NCCNS(=O)(=O)c1ccc(-c2cccc(NC(=O)[C@H](N)CO)c2)c(-c2nn[nH]n2)c1S(N)(=O)=O [Example 454, (R)-2-amino-N-(4′-(N-(2-aminoethyl)sulfamoyl)-3′-sulfamoyl-2′-(2H-tetrazol-5-yl)-[1,1′-biphenyl]-3-yl)-3-hydroxypropanamide] | 2.00 | 0.757 | 3.46 | 1.563 | 0.262 | 3.125 | 1.563 | 3.125 | 6.25
2 | NCCNS(=O)(=O)c1ccc(-c2cccc3c2CCCN3)c(-c2nn[nH]n2)c1S(N)(=O)=O [Example 455, N1-(2-Aminoethyl)-4-(1,2,3,4-tetrahydroquinolin-5-yl)-3-(2H-tetrazol-5-yl)benzene-1,2-disulfonamide] | 8.00 | 0.216 | 0.53 | 1.563 | 0.163 | 12.5 | 1.563 | 3.125 | 3.125
3 | NCCNc1cc(-c2ccc(S(=O)(=O)NCCN)c(S(N)(=O)=O)c2-c2nn[nH]n2)ccn1 [Example 456, N1-(2-Aminoethyl)-4-(2-((2-aminoethyl)amino)pyridin-4-yl)-3-(2H-tetrazol-5-yl)benzene-1,2-disulfonamide] | 2.00 | 1.56 | 3.77 | 0.7813 | 0.545 | 1.563 | 0.7813 | 0.7813 | 1.563
4 | NCCNc1cc(-c2ccc(S(=O)(=O)NCCO)c(S(N)(=O)=O)c2-c2nn[nH]n2)ccn1 [Example 457, 4-(2-((2-aminoethyl)amino)pyridin-4-yl)-N1-(2-hydroxyethyl)-3-(2H-tetrazol-5-yl)benzene-1,2-disulfonamide] | 31.99 | 3.68 | 5.29 | 1.563 | 0.49 | 50 | 1.563 | 3.125 | 6.25
5 | NCCNc1cc(-c2ccc(S(=O)(=O)N[C@@H]3CCNC3)c(S(N)(=O)=O)c2-c2nn[nH]n2)ccn1 [Example 458, (R)-4-(2-((2-aminoethyl)amino)pyridin-4-yl)-N1-(pyrrolidin-3-yl)-3-(2H-tetrazol-5-yl)benzene-1,2-disulfonamide] | 4.00 | 0.532 | 3.77 | 0.7813 | 0.132 | 3.125 | 0.7813 | 1.563 | 1.563
6 | NCCNc1ncccc1-c1ccc(S(=O)(=O)N[C@@H]2CCNC2)c(S(N)(=O)=O)c1-c1nn[nH]n1 [Example 459, (R)-4-(2-((2-Aminoethyl)amino)pyridin-3-yl)-N1-(pyrrolidin-3-yl)-3-(2H-tetrazol-5-yl)benzene-1,2-disulfonamide] | 2.00 | 1.17 | 12.5 | 1.563 | 0.172 | 3.125 | 0.3906 | 1.563 | 1.563
